Results: paper PMC2567432 (PLoS ONE, 2008)
Entries after “also recorded” stand apart in the source; their conditions may differ.

Columns and labels:
[1] = test system: IL-1β release from LPS-stimulated blood cells; assay: Whole blood assay, LPS-induced IL-1β release (cytometric bead array); format: cell-based; settings: Homo sapiens; heparinized whole blood, LPS 10 ng/ml, 6 h, 37°C
Procedure: Figure 2 Effect of polyphenols on IL-1β release from LPS-stimulated blood cells. Heparinized whole blood was stimulated by LPS in the absence or presence of polyphenols at increasing concentrations and incubated for 6 h at 37°C with 5% CO2. (A) Released IL-1β as measured in cell supernatants. Samples without additives but LPS were set at 100%. (B) The calculated […] values of the respective polyphenols. Data represent mean±S.D. of independent experiments (n = 6).
Whole blood assay was performed as previously described. Accordingly, LPS (10 ng/ml), test substances and 200 µl heparinized human blood of healthy donors, obtained from the blood bank of the University of Leipzig, were co-incubated with serum-free medium (RPMI-SF, 1 ml final volume) in 24-well culture plates for 6 h at 37°C with 5% CO2. Samples were removed, centrifuged at 2000×g for 10 min and supernatants were stored at −20°C until assaying for inflammatory cytokines.
Assessment of cytokine levels in supernatants of human blood cell cultures was accomplished using Cytometric Bead Array (CBA™, BD Biosciences, San Jose, U.S.A). The procedure was carried out according to the manufacturer's instruction. Fluorescence measurement and analysis were performed using a FACSCalibur and the CellQuest software (BD Biosciences).

[2] = test system: brain astrocytoma 1321N1 cells; assay: Cell proliferation WST-1 assay, 1321N1; format: cell-based
Procedure: (§1) Figure 3 Growth inhibition of different tumor cell lines by polyphenols. […] Following 24-h incubation, cell proliferation was evaluated using the WST-1 assay.
(§2) Tumor cells were cultured in RPMI medium containing 10% fetal calf serum (RPMI-FCS) (PC-3, JIMT-1, MDA-MD 231) or in DMEM-FCS (astrocytoma 1321N1 cells) containing penicillin/streptomycin (100 U penicillin/ml; 100 µg streptomycin/ml) at 37°C/5% CO2. Cytosolic protein extracts of tumor cells were prepared using extraction buffer composed of 25 mM Tris, 2 mM EDTA, 10% Glycerol, 1% Triton ×100, 2 mM DTT, 1mM PMSF, pH. 7.0 containing 0.3% protease inhibitor cocktail. Protein content was determined according to Bradford. Specific activity of enzymes analyzed in cell extracts was expressed as U/mg protein.
(§3) Cell proliferation/vitality of tumor cells (96-well plates; 5000 cells/well) and primary human hepatocytes (24-well plates; 0.25×10^6 cells/well) was assayed using the WST-1 assay according to manufacturer's instructions. Trypan blue exclusion was performed by staining cells with 0.4% aqueous trypan blue solution according to the manufacturer's instructions.

[3] = test system: breast cancer JIMT-1 cells; assay: Cell proliferation WST-1 assay, JIMT-1; format: cell-based, human
Procedure: as §1, §2, §3

1321N1 cells = assay: Cell vitality by trypan blue exclusion; format: cell-based; settings: 50 µM, 6-h incubation; control 95.6%±2.5%
Description: (B) Cell vitality as assayed by the trypan blue exclusion test. Data represent the mean±S.D. of independent experiments (n = 6).

astrocytoma 1321N1 cells [4] = assay: D-lactate release into medium; format: cell-based; settings: 1321N1, 20 µM curcumin, 24 h; control 34.6±6 µM
Procedure: Cells were harvested and the specific activity of Glo1 and LDH was determined in the cytosolic extract. (B) Semi-quantitative analysis of protein content as performed by Western blot using specific antibodies against β-actin and Glo1. The blot was developed by chemoluminescense detection. […] Data represent the mean±S.D. of independent experiments (n = 6).
The determination of D-lactate and L-lactate in supernatants of astrocytoma 1321N1 cells was performed by an enzymatic method based on the oxidation of L-lactate and D-lactate to pyruvate by NAD in the presence of L-LDH or D-LDH[63].

JIMT-1 cells [5] = assay: Glutathione (GSH) level in cytosolic extract, JIMT-1; format: cell-based, human; settings: JIMT-1, 50 µM, 24 h
Procedure: Cells were harvested and GSH concentration was determined in the cytosolic extract. Data represent the mean±S.D. of independent experiments (n = 6).
GSH was determined using DTNB method. Briefly, cytosolic extract of tumor cells were precipitated by 5% sulfosalicylic acid neutralization, aliquots were mixed with DTNB and absorbance was read at 412 nm against a standard solution of GSH.

astrocytoma 1321N1 cells [6] = assay: Cellular ATP content (CellTiter-Glo), 1321N1; format: cell-based; settings: 1321N1, 6 h; curcumin 0–100 µM, MGO 0–1000 µM
Procedure: (§4) Cellular ATP content was determined using the CellTiter-Glo® Luminescent Cell Viability Assay. Data represent the mean±S.D. of independent experiments (n = 12).
(§5) Cell ATP content was determined by means of the CellTiter-Glo® Luminescent Cell Viability Assay according to the manufacturer's instructions (Promega, Madison, USA). […] After 6-h incubation, cells were mixed with test reagents and luminescence was read according to the manufacturer's instructions. A standard curve was prepared from ATP (1 µM to 10 nM) in medium.

JIMT-1 cells [7] = assay: Cellular ATP content (CellTiter-Glo), JIMT-1; format: cell-based, human; settings: JIMT-1, 6 h; curcumin 0–100 µM, MGO 0–1000 µM
Procedure: as §4, §5

astrocytoma 1321N1 cells [8] = assay: Apoptosis/necrosis by annexin V-FITC/PI staining, flow cytometry; format: cell-based; settings: 24 h
Procedure: (§6) Apoptosis/necrosis was evaluated using annexin V-5-fluorescein isothiocyanate (FITC)/propidium iodine (PI) staining followed by flow cytometric analysis. […] The proportion of dead cells (a: annexin V-FITC^−/PI^+), late apoptotic/necrotic cells (b: annexin V-FITC^+/PI^+), non-apoptotic cells (c: annexin V-FITC^−/PI^−) and early apoptotic cells (d: annexin V-FITC^+/PI^−). (B) Results of 3 independent experiments. […] Data represent the mean±S.D. of three independent experiments.
Samples were analyzed by flow cytometry using a FACSCalibur and the CellQuest software (BD Biosciences, San Jose, USA). Laser excitation wavelength was set at 488 nm. The green signal from annexin V-FITC was measured at 525 nm and the red signal from PI was measured at 620 nm. Annexin V^−/PI^− cells are viable; annexin V^+/PI^− cells are in early apoptosis, whereas annexin V^+/PI^+ cells are necrotic or in late apoptosis are […]

[9] = test system: primary human hepatocytes; assay: Vitality of primary human hepatocytes (WST-1); format: cell-based; settings: 24-h incubation, increasing concentrations
Procedure: as §6
Primary human hepatocytes were isolated and cultivated in serum-free William Medium E [59]. Tissue samples from human liver resection were obtained from patients undergoing partial hepatectomy for metastatic liver tumor of colorectal cancer. Experimental procedures were performed according to the guidelines of the charitable state controlled foundation (Human Tissue and Cell Research), with the informed patient's consent approved by the local ethical committee.
as §3

LDH = LDH activity measurement, interference check; format: biochemical; settings: spectrophotometric, 340 nm
Procedure: LDH activity was spectrophotometrically assayed in the cytosolic extract or in the of cell cultures by adding aliquots to 1 ml reaction buffer (50 mM Na2HPO4, pH 7.0, 0.15 mM NADH, and 0.3 mM pyruvate). Enzyme activity was recorded at 340 nm.

With `COc1cc(C=CC(=O)CC(=O)C=Cc2ccc(O)c(OC)c2)ccc1O` [curcumin, 1,7-bis(4-hydroxy-3-methoxyphenyl)-1,6-heptadiene-3,5-dione] the IC50 [1] was 7.9 µM, the “concentration giving strong anti-proliferative effects” value ([2]; 1321N1, 24 h, WST-1) was “above 50 µM” and the inhibition at 50 µM ([2]; Homo sapiens, 1321N1, 50 µM, 24 h) was ~30%. The inhibition at 50 µM ([3]; Homo sapiens, JIMT-1, 50 µM, 24 h) was ~30%, the “concentration giving strong anti-proliferative effects” value ([3]; JIMT-1, 24 h, WST-1) was “above 50 µM” and the “percentage of vital cells (trypan blue exclusion)” value (1321N1 cells) was 89.5%±2.5%. For the same compound, the “D-lactate concentration in the medium” value (astrocytoma 1321N1 cells [4]) was 22 ± 1.9 µM, the “GSH diminished by” value (JIMT-1 cells [5]) was “approximately 20%” and the “cellular ATP content” value (astrocytoma 1321N1 cells [6]) was “decreased cellular ATP in a concentration-dependent manner”. For the same compound, the “cellular ATP content” value (JIMT-1 cells [7]) was “decreased cellular ATP in a concentration-dependent manner”, the “early apoptotic cells (annexin V-FITC+/PI−)” value (astrocytoma 1321N1 cells [8]; 10 µM) was 11.0% and the “late apoptotic/necrotic cells (annexin V-FITC+/PI+)” value (astrocytoma 1321N1 cells [8]; 50 µM) was 98.2%. The “cell vitality of primary human hepatocytes” value [9] was “no effect; also recorded: not affected” and the “effect on LDH enzyme activity in the assay” value (LDH) was “not affected”.
